Measurements as given in ChEMBL document CHEMBL5584209, “Novel amino- and hydroxy-functionalized 1,2,4-trioxanes and their antimalarial activity against multidrug-resistant Plasmodium yoelii nigeriensis in Swiss mice via intramuscular and oral route” (2024).
Activity calls are given as the source filed them. The calls are words filed in the database; no cut-off is given here.

Each compound was assayed on Plasmodium yoelii nigeriensis (assay: Antimalarial activity against multi-drug resistant Plasmodium yoelii nigeriensis infected in swiss mouse model assessed as suppression of parasitemia at 24 mg/kg, IM administered for 4 days relative to control). Conditions: time 4 day.
Type: functional

Row | SMILES | Activity [%]
1 | C[C@@H]1CC[C@H]2[C@@H](C)C(=O)O[C@@H]3O[C@@]4(C)CC[C@@H]1[C@]32OO4 [ARTEMISININ] | 100

What follows are compounds tested on Plasmodium yoelii nigeriensis (assay: Antimalarial activity against multi-drug resistant Plasmodium yoelii nigeriensis infected in swiss mouse model assessed as suppression of parasitemia at 96 mg/kg, po administered for 4 days relative to control). Conditions: time 4 day.
Type: functional

Row | SMILES | Activity [%]
2 | C=C(c1ccc(OC(C)(C)CO)cc1)C1COC2(CCC(=O)CC2)OO1 (stereo not drawn) | 60
3 | C=C(c1ccc(OC(C)(C)CO)cc1)C1COC2(CCCCC2)OO1 (stereo not drawn) | 68
4 | C=C(c1ccc(OC(C)(C)CNc2ccc(C(F)(F)F)cc2)cc1)C1COC2(CCCC2)OO1 (stereo not drawn) | 100
5 | C=C(c1ccc(OC(C)(C)CO)cc1)C1COC2(OO1)C1CC3CC(C1)CC2C3 (stereo not drawn) | 100
6 | C=C(c1ccc(OC(C)(C)CNc2ccc(F)cc2)cc1)C1COC2(OO1)C1CC3CC(C1)CC2C3 (stereo not drawn) | 100
7 | C=C(c1ccc(OC(C)(C)CO)cc1)C1COC2(CCC(Nc3ccc(Br)cc3)CC2)OO1 (stereo not drawn) | 100
8 | C=C(c1ccc(OC(C)(C)CNc2ccc(C)cc2)cc1)C1COC2(CCCCC2)OO1 (stereo not drawn) | 100
9 | C=C(c1ccc(OC(C)(C)CNc2ccc(Br)cc2)cc1)C1COC2(CCCCC2)OO1 (stereo not drawn) | 100
10 | C=C(c1ccc(OC(C)(C)CNc2ccccc2)cc1)C1COC2(OO1)C1CC3CC(C1)CC2C3 (stereo not drawn) | 100
11 | C=C(c1ccc(OC(C)(C)CO)cc1)C1COC2(CCCC2)OO1 (stereo not drawn) | 53
12 | C=C(c1ccc(OC(C)(C)CNc2cc(Cl)cc(Cl)c2)cc1)C1COC2(CCCC2)OO1 (stereo not drawn) | 100
13 | C[C@@H]1CC[C@H]2[C@@H](C)C(=O)O[C@@H]3O[C@@]4(C)CC[C@@H]1[C@]32OO4 [ARTEMISININ] | 100

These compounds were tested on Plasmodium yoelii nigeriensis (assay: Antimalarial activity against multi-drug resistant Plasmodium yoelii nigeriensis infected in swiss mouse model assessed as suppression of parasitemia at 48 mg/kg, po administered for 4 days relative to control). Conditions: time 4 day.
Type: functional

Row | SMILES | Activity [%]
14 | C=C(c1ccc(OC(C)(C)CNc2ccc(C(F)(F)F)cc2)cc1)C1COC2(CCCC2)OO1 (stereo not drawn) | 100
15 | C=C(c1ccc(OC(C)(C)CO)cc1)C1COC2(OO1)C1CC3CC(C1)CC2C3 (stereo not drawn) | 100
16 | C=C(c1ccc(OC(C)(C)CNc2ccc(F)cc2)cc1)C1COC2(OO1)C1CC3CC(C1)CC2C3 (stereo not drawn) | 100
17 | C=C(c1ccc(OC(C)(C)CNc2ccccc2)cc1)C1COC2(OO1)C1CC3CC(C1)CC2C3 (stereo not drawn) | 100
18 | C=C(c1ccc(OC(C)(C)CNc2cc(Cl)cc(Cl)c2)cc1)C1COC2(CCCC2)OO1 (stereo not drawn) | 100

Each compound was assayed on Plasmodium yoelii nigeriensis (assay: Antimalarial activity against multi-drug resistant Plasmodium yoelii nigeriensis infected in swiss mouse model assessed as suppression of parasitemia at 96 mg/kg, IM administered for 4 days relative to control). Conditions: time 4 day.
Type: functional

Row | SMILES | Activity [%]
19 | C=C(c1ccc(OC(C)(C)CO)cc1)C1COC2(CCC(=O)CC2)OO1 (stereo not drawn) | 53
20 | C=C(c1ccc(OC(C)(C)CO)cc1)C1COC2(CCCCC2)OO1 (stereo not drawn) | 100
21 | C=C(c1ccc(OC(C)(C)CNc2ccc(C(F)(F)F)cc2)cc1)C1COC2(CCCC2)OO1 (stereo not drawn) | 65
22 | C=C(c1ccc(OC(C)(C)CO)cc1)C1COC2(OO1)C1CC3CC(C1)CC2C3 (stereo not drawn) | 100
23 | C=C(c1ccc(OC(C)(C)CO)cc1)C1COC2(CCC(Nc3ccc(Br)cc3)CC2)OO1 (stereo not drawn) | 100
24 | C=C(c1ccc(OC(C)(C)CNc2ccc(C)cc2)cc1)C1COC2(CCCCC2)OO1 (stereo not drawn) | 99
25 | C=C(c1ccc(OC(C)(C)CNc2ccc(Br)cc2)cc1)C1COC2(CCCCC2)OO1 (stereo not drawn) | 100
26 | C=C(c1ccc(OC(C)(C)CO)cc1)C1COC2(CCCC2)OO1 (stereo not drawn) | 98

Each compound was assayed on Plasmodium yoelii nigeriensis (assay: Antimalarial activity against multi-drug resistant Plasmodium yoelii nigeriensis infected in swiss mouse model assessed as suppression of parasitemia at 48 mg/kg, IM administered for 4 days relative to control). Conditions: time 4 day.
Type: functional

Row | SMILES | Activity [%]
27 | C=C(c1ccc(OC(C)(C)CO)cc1)C1COC2(OO1)C1CC3CC(C1)CC2C3 (stereo not drawn) | 100
28 | C=C(c1ccc(OC(C)(C)CO)cc1)C1COC2(CCC(Nc3ccc(Br)cc3)CC2)OO1 (stereo not drawn) | 100
29 | C[C@@H]1CC[C@H]2[C@@H](C)C(=O)O[C@@H]3O[C@@]4(C)CC[C@@H]1[C@]32OO4 [ARTEMISININ] | 100

The compounds below were run on Plasmodium yoelii nigeriensis (assay: Antimalarial activity against multi-drug resistant Plasmodium yoelii nigeriensis infected in swiss mouse model assessed as suppression of parasitemia at 24 mg/kg, po administered for 4 days relative to control). Conditions: time 4 day.
Type: functional

Row | SMILES | Activity [%]
30 | C=C(c1ccc(OC(C)(C)CNc2ccc(F)cc2)cc1)C1COC2(OO1)C1CC3CC(C1)CC2C3 (stereo not drawn) | 100
31 | C=C(c1ccc(OC(C)(C)CNc2ccccc2)cc1)C1COC2(OO1)C1CC3CC(C1)CC2C3 (stereo not drawn) | 100

The compounds below were run on Plasmodium yoelii nigeriensis (assay: Antimalarial activity against multi-drug resistant Plasmodium yoelii nigeriensis infected in swiss mouse model at 96 mg/kg, po administered for 4 days and measured within 6 to 8 days). Conditions: time 6-8 day.
Type: functional, organism-based

Row | SMILES | Activity
32 | C=C(c1ccc(OC(C)(C)CO)cc1)C1COC2(CCC(=O)CC2)OO1 (stereo not drawn) | inactive
33 | C=C(c1ccc(OC(C)(C)CO)cc1)C1COC2(CCCCC2)OO1 (stereo not drawn) | inactive
34 | C=C(c1ccc(OC(C)(C)CNc2ccc(C(F)(F)F)cc2)cc1)C1COC2(CCCC2)OO1 (stereo not drawn) | Active
35 | C=C(c1ccc(OC(C)(C)CO)cc1)C1COC2(OO1)C1CC3CC(C1)CC2C3 (stereo not drawn) | Active
36 | C=C(c1ccc(OC(C)(C)CNc2ccc(F)cc2)cc1)C1COC2(OO1)C1CC3CC(C1)CC2C3 (stereo not drawn) | Active
37 | C=C(c1ccc(OC(C)(C)CO)cc1)C1COC2(CCC(Nc3ccc(Br)cc3)CC2)OO1 (stereo not drawn) | inactive
38 | C=C(c1ccc(OC(C)(C)CNc2ccc(Br)cc2)cc1)C1COC2(CCCCC2)OO1 (stereo not drawn) | Active
39 | C=C(c1ccc(OC(C)(C)CNc2ccccc2)cc1)C1COC2(OO1)C1CC3CC(C1)CC2C3 (stereo not drawn) | Active
40 | C=C(c1ccc(OC(C)(C)CO)cc1)C1COC2(CCCC2)OO1 (stereo not drawn) | inactive
41 | C=C(c1ccc(OC(C)(C)CNc2cc(Cl)cc(Cl)c2)cc1)C1COC2(CCCC2)OO1 (stereo not drawn) | Active
42 | C[C@@H]1CC[C@H]2[C@@H](C)C(=O)O[C@@H]3O[C@@]4(C)CC[C@@H]1[C@]32OO4 [ARTEMISININ] | inactive

The compounds below were run on Plasmodium yoelii nigeriensis (assay: Antimalarial activity against multi-drug resistant Plasmodium yoelii nigeriensis infected in swiss mouse model at 96 mg/kg, IM administered for 4 days and measured within 6 to 8 days). Conditions: time 6-8 day.
Type: functional, organism-based

Row | SMILES | Activity
43 | C=C(c1ccc(OC(C)(C)CO)cc1)C1COC2(CCC(=O)CC2)OO1 (stereo not drawn) | inactive
44 | C=C(c1ccc(OC(C)(C)CNc2ccc(C(F)(F)F)cc2)cc1)C1COC2(CCCC2)OO1 (stereo not drawn) | inactive
45 | C=C(c1ccc(OC(C)(C)CO)cc1)C1COC2(OO1)C1CC3CC(C1)CC2C3 (stereo not drawn) | Active
46 | C=C(c1ccc(OC(C)(C)CO)cc1)C1COC2(CCC(Nc3ccc(Br)cc3)CC2)OO1 (stereo not drawn) | Active

These compounds were tested on Plasmodium yoelii nigeriensis (assay: Antimalarial activity against multi-drug resistant Plasmodium yoelii nigeriensis infected in swiss mouse model at 48 mg/kg, IM administered for 4 days and measured within 6 to 8 days). Conditions: time 6-8 day.
Type: functional, organism-based

Row | SMILES | Activity
47 | C=C(c1ccc(OC(C)(C)CO)cc1)C1COC2(OO1)C1CC3CC(C1)CC2C3 (stereo not drawn) | Active
48 | C=C(c1ccc(OC(C)(C)CO)cc1)C1COC2(CCC(Nc3ccc(Br)cc3)CC2)OO1 (stereo not drawn) | Active
49 | C[C@@H]1CC[C@H]2[C@@H](C)C(=O)O[C@@H]3O[C@@]4(C)CC[C@@H]1[C@]32OO4 [ARTEMISININ] | Active

These compounds were tested on Plasmodium yoelii nigeriensis (assay: Antimalarial activity against multi-drug resistant Plasmodium yoelii nigeriensis infected in swiss mouse model at 48 mg/kg, po administered for 4 days and measured within 6 to 8 days). Conditions: time 6-8 day.
Type: functional, organism-based

Row | SMILES | Activity
50 | C=C(c1ccc(OC(C)(C)CNc2ccc(F)cc2)cc1)C1COC2(OO1)C1CC3CC(C1)CC2C3 (stereo not drawn) | Active
51 | C=C(c1ccc(OC(C)(C)CNc2ccccc2)cc1)C1COC2(OO1)C1CC3CC(C1)CC2C3 (stereo not drawn) | Active

The compounds below were run on Plasmodium yoelii nigeriensis (assay: Antimalarial activity against multi-drug resistant Plasmodium yoelii nigeriensis infected in swiss mouse model assessed as animal survival at 96 mg/kg, po administered for 4 days and measured after 28 days). Conditions: time 28 day.
Type: functional

Row | SMILES | Survival [days]
52 | C=C(c1ccc(OC(C)(C)CNc2ccc(C(F)(F)F)cc2)cc1)C1COC2(CCCC2)OO1 (stereo not drawn) | >28
53 | C=C(c1ccc(OC(C)(C)CNc2ccc(Br)cc2)cc1)C1COC2(CCCCC2)OO1 (stereo not drawn) | >28
54 | C=C(c1ccc(OC(C)(C)CNc2cc(Cl)cc(Cl)c2)cc1)C1COC2(CCCC2)OO1 (stereo not drawn) | >28

The compounds below were run on Plasmodium yoelii nigeriensis (assay: Antimalarial activity against multi-drug resistant Plasmodium yoelii nigeriensis infected in swiss mouse model assessed as animal survival at 96 mg/kg, IM administered for 4 days and measured after 28 days). Conditions: time 28 day.
Type: functional

Row | SMILES | Survival [days]
55 | C=C(c1ccc(OC(C)(C)CO)cc1)C1COC2(CCC(Nc3ccc(Br)cc3)CC2)OO1 (stereo not drawn) | >28

The compounds below were run on Plasmodium yoelii nigeriensis (assay: Antimalarial activity against multi-drug resistant Plasmodium yoelii nigeriensis infected in swiss mouse model assessed as animal survival at 48 mg/kg, IM administered for 4 days and measured after 28 days). Conditions: time 28 day.
Type: functional

Row | SMILES | Survival [days]
56 | C=C(c1ccc(OC(C)(C)CO)cc1)C1COC2(CCC(Nc3ccc(Br)cc3)CC2)OO1 (stereo not drawn) | >28

Each compound was assayed on Plasmodium yoelii nigeriensis (assay: Antimalarial activity against multi-drug resistant Plasmodium yoelii nigeriensis infected in swiss mouse model assessed as suppression of parasitemia by measuring fold change at 48 mg/kg, po administered for 4 days relative to artemisinin). Conditions: time 4 day.
Type: functional

Row | SMILES | fold change (FC)
57 | C=C(c1ccc(OC(C)(C)CNc2ccc(F)cc2)cc1)C1COC2(OO1)C1CC3CC(C1)CC2C3 (stereo not drawn) | 2
58 | C=C(c1ccc(OC(C)(C)CNc2ccccc2)cc1)C1COC2(OO1)C1CC3CC(C1)CC2C3 (stereo not drawn) | 2
